Source: PMC7812606 (ACS Medicinal Chemistry Letters, 2020)
“Also recorded” adds a separate entry of the source.

Columns and labels:
[1] = system: APP^T668 phosphorylation in primary neurons; experiment: Cell-based inhibition of APP T668 phosphorylation; settings: concentration as low as 10 nM
[2] = molecular target: panel of ∼374 wild-type kinases; experiment: Kinase panel profiling, overall; type: biochemical; settings: 17 and 25 at 5 μM, 27 at 10 μM
In vivo brain exposure = settings: mice
JNK3 = JNK3 (Homo sapiens, UniProt P53779); type: biochemical; settings: JNK3 or JNK1
JNK2 = JNK2 (Homo sapiens, UniProt P45984); type: biochemical; settings: isoform selectivity, fold
Chain of JNK2 (P45984 whole entry, canonical isoform): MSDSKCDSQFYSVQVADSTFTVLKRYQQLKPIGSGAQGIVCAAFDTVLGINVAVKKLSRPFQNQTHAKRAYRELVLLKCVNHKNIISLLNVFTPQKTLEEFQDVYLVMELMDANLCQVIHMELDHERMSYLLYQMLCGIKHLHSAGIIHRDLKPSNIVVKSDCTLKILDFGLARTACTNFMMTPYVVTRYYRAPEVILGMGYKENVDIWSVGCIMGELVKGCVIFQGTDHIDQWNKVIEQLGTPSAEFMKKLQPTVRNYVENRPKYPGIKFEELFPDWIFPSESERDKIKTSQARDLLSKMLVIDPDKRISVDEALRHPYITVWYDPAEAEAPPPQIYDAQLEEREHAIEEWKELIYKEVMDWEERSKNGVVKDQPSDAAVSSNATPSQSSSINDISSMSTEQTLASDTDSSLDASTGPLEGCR

Chain of JNK3 (P53779 whole entry, canonical isoform): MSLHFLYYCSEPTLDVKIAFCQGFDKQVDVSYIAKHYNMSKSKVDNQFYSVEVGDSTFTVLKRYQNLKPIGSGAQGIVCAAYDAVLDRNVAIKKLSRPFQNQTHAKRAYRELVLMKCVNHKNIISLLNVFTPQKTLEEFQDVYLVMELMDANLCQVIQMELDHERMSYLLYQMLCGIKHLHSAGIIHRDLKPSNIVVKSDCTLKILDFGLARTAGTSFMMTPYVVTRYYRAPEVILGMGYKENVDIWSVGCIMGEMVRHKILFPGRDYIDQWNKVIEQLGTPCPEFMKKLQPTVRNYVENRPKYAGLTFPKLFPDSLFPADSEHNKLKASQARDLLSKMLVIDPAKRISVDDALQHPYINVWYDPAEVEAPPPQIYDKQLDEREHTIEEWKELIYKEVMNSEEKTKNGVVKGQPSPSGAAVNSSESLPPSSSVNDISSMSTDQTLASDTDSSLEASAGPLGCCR

Row | SMILES | inhibition of phosphorylation of residue T668 of APP [1] | kinases with significant inhibition (>80% inhibition) in panel [2] | other results
1 | Cc1sc(C(=O)N[C@@H]2CCOC2)cc1-n1cc(NC(=O)Nc2c(F)cccc2Cl)cn1 [Compound 28] | significantly inhibited | – | –
2 | O=C(Nc1cnn(-c2csc(C(=O)NC3COC3)c2)c1)Nc1ccccc1Cl [Compound 17] | significantly inhibited | significant inhibition to only JNK3; also recorded: against only JNK3 | brain penetration (In vivo brain exposure; po dosing): brain penetrant; oral bioavailability (In vivo brain exposure; po dosing): has oral bioavailability; brain concentration (In vivo brain exposure; po, 10 mg/kg, 1 h after dosing): 1080 nM; plasma concentration (In vivo brain exposure; po, 10 mg/kg, 1 h after dosing): 960 nM
3 | O=C(Nc1cnn(-c2csc(C(=O)NC3COC3)c2)c1)Nc1c(F)cccc1Cl [Compound 25] | – | against only JNK3 | –
4 | O=C(Nc1cnn(-c2csc(C(=O)NC3COC3)c2)c1)Nc1ccc(F)cc1Cl [Compound 26] | significantly inhibited | – | –
5 | O=C(Nc1cnn(-c2nc(C(=O)NC3CNC3)cs2)c1)Nc1ccccc1Cl [Compound 3] | – | – | inhibition of JNK3 and JNK1 in words (JNK3): no inhibitions
6 | Cc1sc(C(=O)NC2COC2)cc1-n1cc(NC(=O)Nc2c(F)cccc2Cl)cn1 [Compound 27] | – | against only JNK3 | –
7 | O=C(Nc1cnn(-c2csc(C(=O)N[C@@H]3CCOC3)c2)c1)Nc1ccccc1Cl [Compound 16] | – | – | R: ratio of IC50 values for JNK2 over JNK3 (JNK2): > 250
